Laboratory results from paper PMC9775191, “A Subset Screen of the Compounds Australia Scaffold Library Identifies 7-Acylaminodibenzoxazepinones as Potent and Selective Hits for Anti-Giardia Drug Discovery” (Biomedicines, 2022).
Where two headings read alike, the source gives them in different places.

Key:
[1] = tested on: G. duodenalis BRIS/91/HEPU/1279; test: Primary Giardia screen at 10 µM (live-cell imaging, automated counting); format: cell-based, Giardia duodenalis; conditions: for inhibition at 10 µM: Giardia duodenalis
Method in brief: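 One concentration, 10 μM, is screened per compound in singlicate under microaerophilic gas (3% O2, 5% CO2, N2). Inhibition comes from automated image-based counts at 24 and 48 h, relative to 0.2% DMSO controls.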

[2] = tested on: Klebsiella pneumoniae (ATCC 700603); test: Anti-bacterial activity assay; format: cell-based; conditions: ATCC700603, 50 µM, read-out: Bacterial Inhibition K. pneumoniae
Protocol: (§1) The activity of compounds against methicillin resistant Staphylococcus aureus (ATCC 43300), Escherichia coli (ATCC 25922), Acinetobacter baumannii (ATCC 19606) and Klebsiella pneumoniae (ATCC 700603) was assessed at 50 µM in duplicate as previously described. In brief, mid-log phase bacteria cultures were added to 384-well microtiter plate wells containing compound to final cell density of 5 × 10^5 CFU/mL in 50 µL. Plates were then covered and incubated at 37 °C for 18 h without shaking. Inhibition of bacterial growth was determined by measuring absorbance at 600 nm (Tecan M1000 Pro monochromator plate reader) and calculating percentage growth inhibition relative to the negative media and bacteria without inhibitors. Vancomycin hydrochloride (Sigma-Aldrich an affiliate of Merck KGaA, Darmstadt, Germany, #861987) and colistin sulfate (Sigma-Aldrich an affiliate of Merck KGaA, Darmstadt, Germany, C4461) were on each plate as positive controls for Gram-positive (S. aureus) and Gram-negative (E. coli, A. baumannii and K. pneumoniae) bacteria, respectively.

[3] = tested on: methicillin resistant Staphylococcus aureus (ATCC 43300); test: Anti-bacterial activity assay; format: cell-based; conditions: for inhibition at 50 µM: Staphylococcus aureus, ATCC43300, 50 µM, read-out: Bacterial Inhibition S. aureus
Protocol: as §1

[4] = tested on: Escherichia coli (ATCC 25922); test: Anti-bacterial activity assay; format: cell-based; conditions: for inhibition at 50 µM: Escherichia coli, ATCC25922, 50 µM, read-out: Bacterial Inhibition E. coli
Protocol: as §1

[5] = tested on: Acinetobacter baumannii (ATCC 19606); test: Anti-bacterial activity assay; format: cell-based; conditions: ATCC19606, 50 µM
Protocol: as §1

[6] = tested on: Neonatal foreskin fibroblast (NFF) cells; test: Mammalian cell cytotoxicity assay (sulforhodamine B); format: cell-based, human; conditions: for inhibition at 20 µM: ±SD; for SI (48h Gd): Table S2, NFF vs 48 h Giardia IC50
Protocol: The selectivity of compounds of interest was assessed against NFF cells. Assays were performed using sulforhodamine B and included media only, negative (no compound, no DMSO), and vehicle (DMSO) controls as previously described. A chloroquine control plate was included in each assay. […] Repurchased SN00797640 was tested in dose–response from 100 µM against NFF. Selectivity indices (SI) were calculated by dividing mammalian cell IC50 values by G. duodenalis BRIS/91/HEPU/1279 IC50 values.

[7] = tested on: G. duodenalis BRIS/91/HEPU/1279; test: Giardia dose response assay, assemblage B; format: cell-based, Giardia duodenalis
Protocol: In these assays, compounds were serially diluted (8–12-point doubling dilutions in technical duplicate) in DMSO control media, with all test wells inoculated with parasites (1.5 × 10^4 parasites for BRIS/91/HEPU/1279 and BRIS/91/HEPU/1279m1, or 3 × 10^3 parasites for BRIS/87/HEPU/713). […] All plates were sealed in culture chambers and gassed with 3% O2, 5% CO2 in N2 and incubated at 37 °C for 48 h, with parasites imaged and enumerated at 24 and 48 h. Growth inhibition was calculated as a percentage relative to vehicle controls minus any background as described above and IC50 values were determined using log-linear interpolation as previously described. […] Statistical comparison of IC50 values when required were performed using Student’s t-test.

[8] = 24 h, first singlicate assay, read-out: % Inhibition n=1 24h
[9] = 24 h, re-assessment, read-out: % Inhibition n=2 24h
[10] = 24 h, read-out: Average % Inhibition 24h
[11] = 48 h, first singlicate assay, read-out: % Inhibition n=1 48h
[12] = 48 h, re-assessment, read-out: % Inhibition n=2 48h
[13] = 48 h, read-out: Average % Inhibition 48h
[14] = Giardia duodenalis, 24 h, read-out: G. duodenalis IC50 24h, Table S2, 24 h, ±SD, max 10 µM
[15] = Giardia duodenalis, 48 h, Table S2, 48 h, ±SD, max 10 µM, read-out: G. duodenalis IC50 48h

Row | SMILES | IC50 [7, 14] [µM] | IC50 [7, 15] [µM] | inhibition at 10 µM [1, 8] [%] | inhibition at 10 µM [1, 9] [%] | inhibition at 10 µM [1, 10] [%] | inhibition at 10 µM [1, 11] [%] | inhibition at 10 µM [1, 12] [%] | inhibition at 10 µM [1, 13] [%] | inhibition at 50 µM [2] [%] | inhibition at 50 µM [3] [%] | inhibition at 50 µM [4] [%] | inhibition at 50 µM [5] [%] | inhibition at 20 µM ([6]; Homo sapiens, NFF) [%] | SI (48h Gd) [6] | also measured
1 | COc1cc(NS(=O)(=O)c2ccc(C)cc2)cc2sc(NC(=O)c3ccccc3)nc12 [SN00790147, COc1cc(cc2sc(NC(=O)c3ccccc3)nc12)NS(=O)(=O)c1ccc(C)cc1] | > 10 | > 10 | 34.5 | 12.8 | 23.6 | 56.9 | 43.2 | 50.1 | 6.94 | 11.9 | -1.53 | 3.03 | 53.3 ± 7.1 | – | –
2 | O=C(Cc1csc2nc(-c3ccccc3)cn12)Nc1ccc(Cl)cc1 [SN00796218, Clc1ccc(cc1)NC(=O)Cc1csc2nc(cn12)c1ccccc1] | > 10 | > 10 | 47.2 | 48 | 47.6 | 59.9 | 75.5 | 67.7 | 3.63 | -2.23 | 3.03 | 4.35 | 29.7 ± 10.3 | – | –
3 | Cc1ccc(NC(=O)c2cc3c(Cl)ccc4c3n2CCO4)cc1 [SN00788144, Cc1ccc(cc1)NC(=O)c1cc2c(Cl)ccc3OCCn1c23] | > 10 | > 10 | 41 | 20.1 | 30.5 | 65.8 | 32.9 | 49.3 | 13.5 | -2.91 | 2.85 | 20.8 | 31.4 ± 11.3 | – | –
4 | CCc1nnc2c3ccccc3nc(N3CCN(c4cccc(Cl)c4)CC3)n12 [SN00788523, CCc1nnc2n1c(nc1ccccc21)N1CCN(CC1)c1cccc(Cl)c1] | > 10 | 6.91 | 38.2 | 28.9 | 33.6 | 65.8 | 80.4 | 73.1 | 22.1 | 1.08 | 2.37 | 1.85 | -0.2 ± 22.2 | > 2 | inhibition at 10 µM ([7]; Giardia duodenalis, read-out: % inhibition @ 10µM 48h (comment), Table S2 comment, 10 µM, 48 h): 44%
5 | O=[N+]([O-])c1ccc(N2CCC(c3ncc[nH]3)CC2)c2ccncc12 [SN00772378, O=N(=O)c1ccc(N2CCC(CC2)c2ncc[nH]2)c2ccncc12] | > 10 | 4.79 ± 1.45 | 80.4 | 47.7 | 64 | 88.7 | 87.4 | 88 | 15.6 | 34.4 | 5.55 | 4.73 | 1.2 ± 1 | – | –
6 | O=S1(=O)CCC(n2cc(-c3cnn(-c4ccccc4)c3)cn2)C1 (stereo not drawn) [SN00776738, O=S1(=O)CCC(C1)n1ncc(c1)c1cnn(c1)c1ccccc1] | > 10 | > 10 | 46.8 | 44.3 | 45.5 | 52.3 | 80.1 | 66.2 | 6.87 | -13.4 | 5.37 | -4.28 | 16 ± 0.6 | – | –

Now from value to molecule, other results behind:

Row | IC50 [7, 14] [µM] | IC50 [7, 15] [µM] | SMILES | inhibition at 10 µM [1, 8] [%] | inhibition at 10 µM [1, 9] [%] | inhibition at 10 µM [1, 10] [%] | inhibition at 10 µM [1, 11] [%] | inhibition at 10 µM [1, 12] [%] | inhibition at 10 µM [1, 13] [%] | inhibition at 50 µM [2] [%] | inhibition at 50 µM [3] [%] | inhibition at 50 µM [4] [%] | inhibition at 50 µM [5] [%] | inhibition at 20 µM ([6]; Homo sapiens, NFF) [%] | SI (48h Gd) [6] | also measured
7 | > 10 | 5.93 ± 5.7 | Cc1cccc(CNS(=O)(=O)c2cc(-c3csc(C)n3)sc2C)c1 [SN00798431, Cc1cccc(CNS(=O)(=O)c2cc(sc2C)c2csc(C)n2)c1] | 30.2 | 12.3 | 21.2 | 59.2 | 68.1 | 63.6 | 13.7 | 13.3 | -0.77 | 42.5 | 19.3 ± 27 | > 3 | –
8 | > 10 | 4.75 ± 4.02 | CCOc1ccc(CCNC(=O)c2ccc3c(c2)nc2n3CCOC2)cc1OCC [SN00792841, CCOc1cc(CCNC(=O)c2ccc3c(c2)nc2COCCn32)ccc1OCC] | 41.7 | 12.7 | 27.2 | 88.5 | 71.1 | 79.8 | 7.3 | -0.24 | -0.09 | 2.57 | -24.8 ± 15.3 | > 4 | –
9 | > 10 | > 10 | O=C(Nc1nc(-c2ccco2)c(-c2ccco2)s1)c1ccccc1 [SN00769776, O=C(Nc1sc(c2ccco2)c(n1)c1ccco1)c1ccccc1] | 35.4 | 19 | 27.2 | 77.6 | 64.8 | 71.2 | 32.1 | 6.45 | 8.92 | 23.4 | 24.8 ± 11.7 | – | –
10 | 5.35 | 7.82 | O=C(NC1CCCCC1)c1nc(Nc2ccccc2)c2ccccc2n1 [SN00792461, O=C(NC1CCCCC1)c1nc(Nc2ccccc2)c2ccccc2n1] | 44.7 | 74.4 | 59.5 | 57.7 | 88.5 | 73.1 | 12.6 | 8.09 | 3.63 | 10.8 | 21.3 ± 27.1 | > 2 | –
11 | 0.25 ± 0.27 | – | Cc1cc(-c2cc(C(=O)Nc3ccc(N4CCN(C)CC4)nc3)c3cnn(C(C)C)c3n2)c(C)o1 [SN00776497] | 94.6 | 97.2 | 95.9 | 98 | 98.5 | 98.2 | 8.25 | 55.8 | 5.45 | 19.6 | – | 101 | Average % Inhibition 48h ([1]; 48 h): > 90%; Bacterial Inhibition S. aureus ([3]; 50 µM): 56%; selectivity index over bacteria ([4]; E. coli, A. baumannii and K. pneumoniae / bacteria, Table S2): > 600; IC50 ([6]; Homo sapiens, NFF, mean ± SD, read-out: IC50 NFF): 8.1 µM; Selectivity ([6]; NFF IC50 divided by G. duodenalis BRIS/91/HEPU/1279 IC50): 101; fold more potent than metronidazole ([7]; 48 h IC50): > 30 fold; IC50 ([7]; Giardia duodenalis, 48 h, BRIS/91/HEPU/1279, 48 h, mean ± SD, read-out: IC50 Giardia (48 h)): 0.08 µM
12 | 3.1 ± 2.29 | 3.27 ± 4.08 | CC(=O)Nc1ccc([N+](=O)[O-])c2nonc12 [SN00783960, CC(=O)Nc1ccc(N(=O)=O)c2nonc12] | 53.9 | 36.2 | 45.1 | 66.5 | 60.2 | 63.3 | 19.9 | 95.3 | 12 | 6.26 | 98.5 ± 3.8 | < 6 | –
